Tests used:
Assay in all cases: cell viability with growth factor relative to same drug with BSA mock; higher = growth factor protects cells from drug (more viable cells)
Conditions in all cases: treatment time: 6 days
SH-SY5Y = tested on: SH-SY5Y
Method: (§1)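 Six neuroblastoma cell lines were treated with a kinase inhibitor or vincristine at a fixed dose (70–90% lethal) plus a growth factor (100 ng/ml) or 0.1% BSA mock for 72 h. Drugs and growth factors were then renewed for another 72 h (6 days total). Viability was read by XTT in triplicate and normalised to the same drug plus BSA (=100%).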

LAN-1 = tested on: LAN-1
Method: as §1

SK-N-AS = tested on: SK-N-AS
Method: as §1

SK-N-SH = tested on: SK-N-SH
Method: as §1

SK-N-BE = tested on: SK-N-BE
Method: as §1

Kelly = tested on: Kelly
Method: as §1

COc1cc2nccc(Oc3ccc(NC(=O)C4(C(=O)Nc5ccc(F)cc5)CC4)cc3)c2cc1OC [cabozantinib]
cell viability with growth factor [%]
Conditions	added growth factor (100 ng/ml): BDNF	added growth factor (100 ng/ml): EPO	added growth factor (100 ng/ml): HGF	added growth factor (100 ng/ml): IGF-1	added growth factor (100 ng/ml): NGF	added growth factor (100 ng/ml): SCF
Kelly, drug concentration: 5 uM	109	118	84.5	73	133	101
LAN-1, drug concentration: 5 uM	125	160	168	123	161	93.5
SH-SY5Y, drug concentration: 2.5 uM	114	127	151	139	183	81.1
SK-N-AS, drug concentration: 7.5 uM	124	99	108	84.9	95.9	96.9
SK-N-BE, drug concentration: 7.5 uM	278	200	248	316	191	251
SK-N-SH, drug concentration: 5 uM	153	110.1	94.5	59.6	153	124

Cc1ccc(NC(=O)c2ccc(CN3CCN(C)CC3)cc2)cc1Nc1nccc(-c2cccnc2)n1 [imatinib]
cell viability with growth factor [%]
Conditions	added growth factor (100 ng/ml): BDNF	added growth factor (100 ng/ml): EPO	added growth factor (100 ng/ml): HGF	added growth factor (100 ng/ml): IGF-1	added growth factor (100 ng/ml): NGF	added growth factor (100 ng/ml): SCF
Kelly, drug concentration: 25 uM	165	184	167	145	125	134
LAN-1, drug concentration: 20 uM	101	121	86.4	117	135	99.4
SH-SY5Y, drug concentration: 25 uM	94.8	166	106	99.5	207	111
SK-N-AS, drug concentration: 20 uM	104	103	123	134	111	112
SK-N-BE, drug concentration: 25 uM	103	217	103	124	179	76.9
SK-N-SH, drug concentration: 25 uM	106	121	143	110	110	98.2

CC[C@]1(O)C[C@H]2CN(CCc3c([nH]c4ccccc34)[C@@](C(=O)OC)(c3cc4c(cc3OC)N(C=O)[C@H]3[C@@](O)(C(=O)OC)[C@H](OC(C)=O)[C@]5(CC)C=CCN6CC[C@]43[C@@H]65)C2)C1 [vincristine]
cell viability with growth factor [%]
Conditions	added growth factor (100 ng/ml): BDNF	added growth factor (100 ng/ml): EPO	added growth factor (100 ng/ml): HGF	added growth factor (100 ng/ml): IGF-1	added growth factor (100 ng/ml): NGF	added growth factor (100 ng/ml): SCF
Kelly, drug concentration: 5 nM	86.8	89.5	95.4	200	70.2	99.2
LAN-1, drug concentration: 5 nM	84.5	151	116	99.3	92.4	116
SH-SY5Y, drug concentration: 25 nM	110	149	108	110	208	97.4
SK-N-AS, drug concentration: 5 nM	95	78.5	124	219	88.2	97.3
SK-N-BE, drug concentration: 20 nM	98	171	97.5	116	137	128
SK-N-SH, drug concentration: 5 nM	98	152	97.7	142	129	88.1

C[C@@H](Oc1cc(-c2cnn(C3CCNCC3)c2)cnc1N)c1c(Cl)ccc(F)c1Cl [crizotinib]
cell viability with growth factor [%]
Conditions	added growth factor (100 ng/ml): BDNF	added growth factor (100 ng/ml): EPO	added growth factor (100 ng/ml): HGF	added growth factor (100 ng/ml): IGF-1	added growth factor (100 ng/ml): NGF	added growth factor (100 ng/ml): SCF
Kelly, drug concentration: 1 uM	352	365	112	176	300	107
LAN-1, drug concentration: 2.5 uM	232	241	227	186	359	142
SH-SY5Y, drug concentration: 2.5 uM	118	137	174	101	184	120
SK-N-AS, drug concentration: 5 uM	103	89.6	106	130	73.9	106
SK-N-BE, drug concentration: 5 uM	422	123	88.9	291	173	121
SK-N-SH, drug concentration: 1 uM	122	111	82.7	90.8	210	95.3

Cc1nc(Nc2ncc(C(=O)Nc3c(C)cccc3Cl)s2)cc(N2CCN(CCO)CC2)n1 [dasatinib]
cell viability with growth factor [%]
Conditions	added growth factor (100 ng/ml): BDNF	added growth factor (100 ng/ml): EPO	added growth factor (100 ng/ml): HGF	added growth factor (100 ng/ml): IGF-1	added growth factor (100 ng/ml): NGF	added growth factor (100 ng/ml): SCF
Kelly, drug concentration: 500 nM	86.8	238	198	292	164	95.8
LAN-1, drug concentration: 5 nM	93.1	228	129	138	273	97.6
SH-SY5Y, drug concentration: 25 nM	131	320	97	135	217	169
SK-N-AS, drug concentration: 50 nM	117	108	134	235	104	82.7
SK-N-BE, drug concentration: 500 nM	90.9	130	111	185	83.6	146
SK-N-SH, drug concentration: 500 nM	99.7	126	151	205	116	113

CNC(=O)c1ccccc1Sc1ccc2c(/C=C/c3ccccn3)n[nH]c2c1 [axitinib]
cell viability with growth factor [%]
Conditions	added growth factor (100 ng/ml): BDNF	added growth factor (100 ng/ml): EPO	added growth factor (100 ng/ml): HGF	added growth factor (100 ng/ml): IGF-1	added growth factor (100 ng/ml): NGF	added growth factor (100 ng/ml): SCF
Kelly, drug concentration: 10 uM	143	177	94.1	57.3	148	106
LAN-1, drug concentration: 5 uM	112	173	93	98.5	159	117
SH-SY5Y, drug concentration: 2.5 uM	104	138	95.7	80.7	137	107
SK-N-AS, drug concentration: 5 uM	95.7	101	85.5	48.7	96.1	99
SK-N-BE, drug concentration: 5 uM	103	142	100	255	122	149
SK-N-SH, drug concentration: 10 uM	109.9	177	96.8	60	118	83.5

Source: the supplement of paper PMC8566230
